The source of these data is patent US9295255B2, “Use of dithiine derivatives in crop protection and the protection of materials” (Bayer Intellectual Property GmbH, priority 2010, dated 2016).

One series concerns Alternaria solani. Kind of series: Alternaria test (tomato)/protective. Conditions: young tomato plants sprayed, 1500 ppm, protective; evaluation 7 days following inoculation; 0% = control, 100% = no infestation. The format is in vivo.
The next series deals with Phytophthora infestans. The series is classed as in vivo. Conditions: young tomato plants sprayed, 1500 ppm, protective; evaluation 7 days following inoculation; 0% = control, 100% = no infestation.
Series [1] is described as follows: log P determination by HPLC on reversed-phase column (EEC Directive 79/831 Annex V.A8). The format is physicochemical. Conditions: reversed-phase C18 HPLC column, reversed-phase C 18, 43° C., acidic range pH 2.7, 0.1% aqueous formic acid/acetonitrile. The protocol: The log P values reported in the preparation examples and tables above are determined in accordance with EEC Directive 79/831 Annex V.A8 by means of HPLC (High Performance Liquid Chromatography) on a reversed-phase column (C 18). Temperature: 43° C.
The determination with the LC-MS in the acidic range takes place at a pH of 2.7 using 0.1% aqueous formic acid and acetonitrile (containing 0.1% formic acid) as eluents: linear gradient from 10% acetonitrile to 95% acetonitrile.
Calibration takes place using unbranched alkan-2-ones (having 3 to 16 carbon atoms) of which the log P values are known (log P values determined on the basis of the retention times, by linear interpolation between two successive alkanones).

A further series deals with Botrytis cinerea. Nature of the series: Botrytis test (bean)/protective. The format is in vivo. The conditions noted are these: young bean plants sprayed, 500 ppm, protective; size of infestation spots 2 days following inoculation; 0% = control, 100% = no infestation. From the text:
An appropriate preparation of active compound is produced by mixing 1 part by weight of active compound with the stated amounts of solvent and emulsifier and diluting the concentrate with water to the desired concentration. To test for protective activity, young plants are sprayed with the preparation of active compound at the stated application rate. After the spray coating has dried on, 2 small pieces of agar on which Botrytis cinerea is growing are placed on each leaf. The inoculated plants are placed in a darkened chamber at approximately 20° C. and 100% relative humidity. After 2 clays following inoculation, the size of the infestation spots on the leaves is evaluated. Here, 0% denotes an efficacy which corresponds to that of the control, whereas an efficacy of 100% means that no infestation is observed.

The test system of a further series is Plasmopara viticola. Nature of the series: Plasmopara test (grapevine)/protective. The series is classed as in vivo. The conditions noted are these: young grapevine plants sprayed, 250 ppm, protective; evaluation 6 days following inoculation; 0% = control, 100% = no infestation. From the text:
(§1) An appropriate preparation of active compound is produced by mixing 1 part by weight of active compound with the stated amounts of solvent and emulsifier and diluting the concentrate with water to the desired concentration. To test for protective activity, young plants are sprayed with the preparation of active compound at the stated application rate. After the spray coating has dried on, the plants are inoculated with an aqueous spore suspension of Plasmopara viticola and then spend 1 day in an incubation cabin at approximately 20° C. and 100% relative humidity. Subsequently the plants are placed for 4 days in a greenhouse at approximately 21° C. and approximately 90% humidity. The plants are then moistened and placed in an incubation cabin for 1 day. After 6 days following inoculation, evaluation takes place. Here, 0% denotes an efficacy which corresponds to that of the control, whereas an efficacy of 100% means that no infestation is observed.

The next series has as its system Venturia inaequalis. Kind of series: Venturia test (apple)/protective. The conditions noted are these: young apple plants sprayed, 250 ppm, protective; evaluation 10 days following inoculation; 0% = control, 100% = no infestation. The format is in vivo.
Text: as §1, with “conidia” for “spore”, “the causative organism of apple scab, Venturia inaequalis,” for “Plasmopara viticola”, “placed” for “placed for 4 days”, “humidity.” for “humidity. The plants are then moistened and placed in an incubation cabin for 1 day.”, “10 clays” for “6 days”

In the case of `Cc1c(C)c(=O)c2sc(C#N)c(C#N)sc=2c1=O` [Compound 43, 6,7-dimethyl-5,8-dioxo-5,8-dihydro-1,4-benzodithiine-2,3-dicarbonitrile], in the series on Alternaria solani, the Efficacy in % came to 100%.

Consider `COc1c(Cl)c(=O)c2sc(C#N)c(C#N)sc=2c1=O` [Compound 44, 6-chloro-7-methoxy-5,8-dioxo-5,8-dihydro-1,4-benzodithiine-2,3-dicarbonitrile], for which the Efficacy in % in the series with Alternaria solani amounted to 100%.

`CC(C)(C)c1cc(=O)c2sc(C#N)c(C#N)sc=2c1=O` [Compound 45, 6-tert-butyl-5,8-dioxo-5,8-dihydro-1,4-benzodithiine-2,3-dicarbonitrile]: in the series with Phytophthora infestans, the Efficacy in % amounted to 78%.

The term chromatographic logP denotes lipophilicity estimated from chromatographic retention. Lower therefore signals a more hydrophilic compound. In series [1], `Cc1c(C)c(O)c2c(c1O)SC(C#N)=C(C#N)S2` [Compound 47, 5,8-dihydroxy-6,7-dimethyl-1,4-benzodithiine-2,3-dicarbonitrile] yielded a chromatographic logP of 2.26. Besides, the Efficacy in % in the series on Alternaria solani turned out to be 100%; in the series with Botrytis cinerea, 100%; in the series with Phytophthora infestans, 89%; in the series with Plasmopara viticola, 92%; in the series with Venturia inaequalis it was 100%.

As to `COc1c(O)c2c(c(O)c1Cl)SC(C#N)=C(C#N)S2` [Compound 48, 6-chloro-5,8-dihydroxy-7-methoxy-1,4-benzodithiine-2,3-dicarbonitrile], the chromatographic logP in series [1] was 2.19. Further, the Efficacy in % turned out to be 100% in the series on Alternaria solani; 97% in the series with Botrytis cinerea; 94% in the series on Phytophthora infestans; 90% in the series on Plasmopara viticola; 100% in the series on Venturia inaequalis.

In series [1], `CC(C)(C)c1cc(O)c2c(c1O)SC(C#N)=C(C#N)S2` [Compound 49, 6-tert-butyl-5,8-dihydroxy-1,4-benzodithiine-2,3-dicarbonitrile] showed a chromatographic logP of 2.95. The Efficacy in % in the series with Alternaria solani is given as 100%; in the series with Botrytis cinerea it was 96%; in the series with Phytophthora infestans, 94%; in the series on Plasmopara viticola it was 92%; in the series on Venturia inaequalis, 100%.
